From the NIST ThermoML archive (doi:10.1021/je0340248)
Numbers after ± are expanded uncertainties.

How the values were obtained:
[1] = 101.33 kPa, Liquid
[2] = xn = mol fraction of the nth substance listed; settings: 101 kPa, Liquid

OCCO [1,2-ethanediol]
[1]
Settings | mass density [kg/m3] | speed of sound [m/s] | viscosity [mPa·s]
298.15 K | – | 1662 ± 2 | 14.82 ± 0.19
303.15 K | 1106.63 ± 0.3 | – | –
308.15 K | – | 1635 ± 2 | 10.48 ± 0.15
313.15 K | 1099.64 ± 0.29 | – | –

COC(C)=O [methyl ethanoate] + OCCO
[2]
Settings | mass density, 298.15 K [kg/m3] | mass density, 303.15 K [kg/m3] | mass density, 308.15 K [kg/m3] | mass density, 313.15 K [kg/m3] | speed of sound, 298.15 K [m/s] | speed of sound, 308.15 K [m/s] | viscosity, 298.15 K [mPa·s] | viscosity, 308.15 K [mPa·s]
x1 = 0.0444 | 1100.26 ± 0.3 | 1096.48 ± 0.3 | 1092.85 ± 0.29 | 1089.11 ± 0.29 | 1627 ± 2 | 1600 ± 2 | 11.86 ± 0.16 | 8.678 ± 0.13
x1 = 0.1488 | 1077.91 ± 0.32 | 1073.64 ± 0.31 | 1070.12 ± 0.31 | 1065.97 ± 0.32 | 1550 ± 2 | 1521 ± 2 | 7.177 ± 0.1 | 5.649 ± 0.082
x1 = 0.2505 | 1056.96 ± 0.35 | 1052.6 ± 0.35 | 1049.33 ± 0.36 | 1045.05 ± 0.36 | 1482 ± 2 | 1452 ± 2 | 4.535 ± 0.069 | 3.788 ± 0.056
x1 = 0.3485 | 1037.61 ± 0.4 | 1033.23 ± 0.4 | 1030.22 ± 0.41 | 1025.91 ± 0.42 | 1424 ± 2 | 1391 ± 2 | 2.996 ± 0.046 | 2.623 ± 0.04
x1 = 0.4411 | 1020.06 ± 0.45 | 1015.63 ± 0.46 | 1012.78 ± 0.46 | 1008.44 ± 0.47 | 1374 ± 2 | 1338 ± 2 | 2.078 ± 0.032 | 1.882 ± 0.029
x1 = 0.4856 | 1011.89 ± 0.48 | 1007.39 ± 0.49 | 1004.56 ± 0.49 | 1000.19 ± 0.5 | 1351 ± 2 | 1315 ± 2 | 1.758 ± 0.028 | 1.614 ± 0.025
x1 = 0.5507 | 1000.2 ± 0.51 | 995.55 ± 0.52 | 992.71 ± 0.53 | 988.26 ± 0.54 | 1320 ± 2 | 1282 ± 2 | 1.39 ± 0.022 | 1.296 ± 0.021
x1 = 0.6503 | 982.94 ± 0.57 | 977.9 ± 0.58 | 974.92 ± 0.59 | 970.21 ± 0.6 | 1276 ± 2 | 1237 ± 2 | 0.994 ± 0.017 | 0.941 ± 0.016
x1 = 0.7489 | 966.49 ± 0.63 | 960.93 ± 0.64 | 957.65 ± 0.65 | 952.55 ± 0.67 | 1237 ± 2 | 1196 ± 2 | 0.734 ± 0.013 | 0.697 ± 0.012
x1 = 0.8498 | 950.22 ± 0.69 | 944.03 ± 0.7 | 940.33 ± 0.71 | 934.64 ± 0.73 | 1199 ± 2 | 1157 ± 2 | 0.554 ± 0.01 | 0.522 ± 0.01
x1 = 0.9453 | 935.24 ± 0.74 | 928.45 ± 0.76 | 924.26 ± 0.77 | 917.85 ± 0.79 | 1167 ± 2 | 1122 ± 2 | 0.435 ± 0.008 | 0.404 ± 0.008

OCCOCCOCCO [triethylene glycol] + CCCCOC(C)=O
[2]
Settings | mass density, 298.15 K [kg/m3] | mass density, 303.15 K [kg/m3] | mass density, 308.15 K [kg/m3] | mass density, 313.15 K [kg/m3] | speed of sound, 298.15 K [m/s] | speed of sound, 308.15 K [m/s] | viscosity, 298.15 K [mPa·s] | viscosity, 308.15 K [mPa·s]
x2 = 0.0452 | 1108.89 ± 0.32 | 1105.14 ± 0.31 | 1101.13 ± 0.3 | 1098.6 ± 0.3 | 1586 ± 2 | 1559 ± 2 | 31.2 ± 0.42 | 18.96 ± 0.33
x2 = 0.1515 | 1083.49 ± 0.32 | 1079.63 ± 0.32 | 1075.41 ± 0.32 | 1072.59 ± 0.32 | 1524 ± 2 | 1498 ± 2 | 24.06 ± 0.34 | 14.16 ± 0.25
x2 = 0.2488 | 1060.06 ± 0.35 | 1056.08 ± 0.35 | 1051.65 ± 0.36 | 1048.53 ± 0.36 | 1470 ± 2 | 1446 ± 2 | 18.29 ± 0.27 | 10.62 ± 0.2
x2 = 0.3493 | 1035.73 ± 0.4 | 1031.63 ± 0.41 | 1026.98 ± 0.42 | 1023.57 ± 0.42 | 1420 ± 2 | 1395 ± 2 | 13.28 ± 0.2 | 7.731 ± 0.15
x2 = 0.4464 | 1012.14 ± 0.47 | 1007.94 ± 0.48 | 1003.07 ± 0.49 | 999.41 ± 0.5 | 1375 ± 2 | 1350 ± 2 | 9.402 ± 0.14 | 5.575 ± 0.11
x2 = 0.4953 | 1000.24 ± 0.51 | 995.98 ± 0.52 | 991.02 ± 0.53 | 987.24 ± 0.54 | 1355 ± 2 | 1329 ± 2 | 7.798 ± 0.12 | 4.694 ± 0.092
x2 = 0.5495 | 987.03 ± 0.55 | 982.72 ± 0.56 | 977.64 ± 0.57 | 973.75 ± 0.58 | 1334 ± 2 | 1307 ± 2 | 6.273 ± 0.1 | 3.856 ± 0.074
x2 = 0.6493 | 962.66 ± 0.63 | 958.25 ± 0.64 | 952.97 ± 0.65 | 948.88 ± 0.66 | 1298 ± 2 | 1267 ± 2 | 4.084 ± 0.069 | 2.642 ± 0.048
x2 = 0.7488 | 938.29 ± 0.71 | 933.77 ± 0.72 | 928.31 ± 0.74 | 924.03 ± 0.75 | 1265 ± 2 | 1232 ± 2 | 2.566 ± 0.044 | 1.776 ± 0.031
x2 = 0.8515 | 913.02 ± 0.8 | 908.37 ± 0.81 | 902.74 ± 0.83 | 898.24 ± 0.84 | 1233 ± 2 | 1197 ± 2 | 1.528 ± 0.026 | 1.153 ± 0.02
x2 = 0.9421 | 890.6 ± 0.88 | 885.8 ± 0.9 | 880.04 ± 0.91 | 875.29 ± 0.93 | 1207 ± 2 | 1168 ± 2 | 0.936 ± 0.016 | 0.774 ± 0.014

OCCOCCOCCO [triethylene glycol] + CCOC(C)=O
[2]
Settings | mass density, 298.15 K [kg/m3] | mass density, 303.15 K [kg/m3] | mass density, 308.15 K [kg/m3] | mass density, 313.15 K [kg/m3] | speed of sound, 298.15 K [m/s] | speed of sound, 308.15 K [m/s] | viscosity, 298.15 K [mPa·s] | viscosity, 308.15 K [mPa·s]
x2 = 0.0466 | 1112.15 ± 0.32 | 1108.39 ± 0.32 | 1104.32 ± 0.31 | 1101.76 ± 0.3 | 1592 ± 2 | 1567 ± 2 | 30.14 ± 0.4 | 18.65 ± 0.31
x2 = 0.1482 | 1095.3 ± 0.33 | 1091.27 ± 0.32 | 1086.97 ± 0.32 | 1084.07 ± 0.32 | 1547 ± 2 | 1523 ± 2 | 22.05 ± 0.31 | 13.71 ± 0.23
x2 = 0.25 | 1077.4 ± 0.34 | 1073.02 ± 0.34 | 1068.55 ± 0.34 | 1065.26 ± 0.34 | 1499 ± 2 | 1473 ± 2 | 15.58 ± 0.22 | 9.818 ± 0.16
x2 = 0.3499 | 1058.65 ± 0.38 | 1053.94 ± 0.38 | 1049.34 ± 0.38 | 1045.63 ± 0.39 | 1452 ± 2 | 1426 ± 2 | 10.73 ± 0.16 | 6.905 ± 0.12
x2 = 0.4493 | 1038.63 ± 0.43 | 1033.67 ± 0.43 | 1028.96 ± 0.44 | 1024.82 ± 0.45 | 1408 ± 2 | 1379 ± 2 | 7.167 ± 0.11 | 4.749 ± 0.084
x2 = 0.4995 | 1027.95 ± 0.46 | 1022.9 ± 0.46 | 1018.12 ± 0.47 | 1013.77 ± 0.48 | 1386 ± 2 | 1356 ± 2 | 5.775 ± 0.091 | 3.896 ± 0.068
x2 = 0.5503 | 1016.71 ± 0.48 | 1011.6 ± 0.49 | 1006.75 ± 0.5 | 1002.18 ± 0.51 | 1363 ± 2 | 1333 ± 2 | 4.602 ± 0.075 | 3.168 ± 0.055
x2 = 0.6497 | 993.4 ± 0.55 | 988.21 ± 0.56 | 983.2 ± 0.57 | 978.19 ± 0.59 | 1318 ± 2 | 1286 ± 2 | 2.881 ± 0.048 | 2.076 ± 0.035
x2 = 0.749 | 968.18 ± 0.62 | 962.95 ± 0.64 | 957.73 ± 0.65 | 952.29 ± 0.67 | 1271 ± 2 | 1236 ± 2 | 1.748 ± 0.03 | 1.329 ± 0.022
x2 = 0.8503 | 940.27 ± 0.72 | 934.9 ± 0.73 | 929.41 ± 0.75 | 923.53 ± 0.77 | 1220 ± 2 | 1181 ± 2 | 1.015 ± 0.018 | 0.823 ± 0.014
x2 = 0.9417 | 913.03 ± 0.81 | 907.33 ± 0.83 | 901.55 ± 0.84 | 895.28 ± 0.87 | 1171 ± 2 | 1130 ± 2 | 0.604 ± 0.011 | 0.523 ± 0.01

OCCOCCOCCO [triethylene glycol] + COC(C)=O
[2]
Settings | mass density, 298.15 K [kg/m3] | mass density, 303.15 K [kg/m3] | mass density, 308.15 K [kg/m3] | mass density, 313.15 K [kg/m3] | speed of sound, 298.15 K [m/s] | speed of sound, 308.15 K [m/s] | viscosity, 298.15 K [mPa·s] | viscosity, 308.15 K [mPa·s]
x2 = 0.0455 | 1115.19 ± 0.33 | 1111.41 ± 0.32 | 1107.51 ± 0.31 | 1105.03 ± 0.31 | 1598 ± 2 | 1572 ± 2 | 32.01 ± 0.43 | 19.45 ± 0.33
x2 = 0.1522 | 1103.73 ± 0.34 | 1099.72 ± 0.33 | 1095.8 ± 0.33 | 1093.05 ± 0.32 | 1559 ± 2 | 1533 ± 2 | 25.74 ± 0.36 | 15.15 ± 0.27
x2 = 0.2512 | 1091.78 ± 0.35 | 1087.49 ± 0.35 | 1083.5 ± 0.34 | 1080.38 ± 0.34 | 1521 ± 2 | 1493 ± 2 | 19.76 ± 0.28 | 11.49 ± 0.21
x2 = 0.3504 | 1078.53 ± 0.37 | 1073.91 ± 0.37 | 1069.84 ± 0.37 | 1066.3 ± 0.37 | 1482 ± 2 | 1452 ± 2 | 14.27 ± 0.21 | 8.336 ± 0.16
x2 = 0.4457 | 1064.43 ± 0.4 | 1059.49 ± 0.4 | 1055.35 ± 0.4 | 1051.39 ± 0.41 | 1446 ± 2 | 1414 ± 2 | 9.869 ± 0.15 | 5.882 ± 0.11
x2 = 0.49 | 1057.35 ± 0.42 | 1052.25 ± 0.42 | 1048.08 ± 0.42 | 1043.93 ± 0.43 | 1428 ± 2 | 1396 ± 2 | 8.158 ± 0.13 | 4.935 ± 0.096
x2 = 0.5519 | 1046.77 ± 0.44 | 1041.46 ± 0.45 | 1037.27 ± 0.45 | 1032.85 ± 0.46 | 1402 ± 2 | 1369 ± 2 | 6.128 ± 0.099 | 3.806 ± 0.072
x2 = 0.6512 | 1027.79 ± 0.48 | 1022.13 ± 0.49 | 1017.92 ± 0.5 | 1013.08 ± 0.51 | 1357 ± 2 | 1323 ± 2 | 3.687 ± 0.063 | 2.422 ± 0.043
x2 = 0.7516 | 1005.3 ± 0.54 | 999.28 ± 0.55 | 995.06 ± 0.56 | 989.76 ± 0.57 | 1305 ± 2 | 1268 ± 2 | 2.075 ± 0.036 | 1.467 ± 0.025
x2 = 0.8513 | 978.49 ± 0.61 | 972.08 ± 0.63 | 967.82 ± 0.64 | 962.01 ± 0.66 | 1246 ± 2 | 1206 ± 2 | 1.103 ± 0.02 | 0.854 ± 0.015
x2 = 0.9424 | 948.8 ± 0.71 | 941.98 ± 0.72 | 937.63 ± 0.74 | 931.21 ± 0.75 | 1188 ± 2 | 1143 ± 2 | 0.587 ± 0.011 | 0.501 ± 0.009
